According to patent US12180187B2, “1-phenyl-5-azinylpyrazolyl-3-oxyalkyl acids and their use for controlling unwanted plant growth” (BAYER AKTIENGESELLSCHAFT, priority 2019, dated 2024):
Values joined by “and” are separate entries in the source; they are usually repeats but may differ in a detail not shown here. Identical values can stand only once.

Key:
SETVI [1] = assay: Pre-emergence action against SETVI, 1280 g/ha; type: in vivo, Setaria viridis; settings: visual scoring after about 3 weeks vs untreated controls, 100% = plants have died, 0% = like control plants
How it was run: (§1)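 Weed seeds sown in sandy loam in pots, covered with soil; compound as WP or EC applied to soil surface as aqueous suspension/emulsion with 0.5% additive at 600 L/ha water. Greenhouse, good growth conditions; visual % damage vs untreated controls after about 3 weeks (100% = plants dead, 0% = like control).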

STEME = assay: Pre-emergence action against STEME, 1280 g/ha; type: in vivo, Stellaria media; settings: scored visually after about 3 weeks vs untreated controls (100% = plants have died)
How it was run: as §1

DIGSA = assay: Pre-emergence action at 320 g/ha against DIGSA; type: in vivo, Digitaria sanguinalis; settings: visual scoring after about 3 weeks vs untreated controls
How it was run: (§2)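 Greenhouse pot trial in which formulated compound (wettable powder or emulsion concentrate) goes onto the soil surface right after sowing, at a spray volume of 600 l/ha including 0.5% additive. Effects are judged visually after about 3 weeks (0% = like control, 100% = dead).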

SETVI [2] = assay: Pre-emergence action at 320 g/ha against SETVI; type: in vivo, Setaria viridis; settings: visual scoring after about 3 weeks vs untreated controls
How it was run: as §2

MATIN = assay: Pre-emergence action against MATIN, 1280 g/ha; type: in vivo, Tripleurospermum inodorum (Matricaria inodora); settings: scored visually after about 3 weeks vs untreated controls (100% = plants have died)
How it was run: as §1

ECHCG = assay: Pre-emergence action against ECHCG, 1280 g/ha; type: in vivo, Echinochloa crus-galli; settings: visual scoring after about 3 weeks vs untreated controls, 100% = plants have died, 0% = like control plants
How it was run: as §1

POLCO = assay: Pre-emergence action at 320 g/ha against POLCO; type: in vivo, Fallopia convolvulus (Polygonum convolvulus); settings: visual scoring after about 3 weeks vs untreated controls
How it was run: as §2

ABUTH = assay: Post-emergence action against ABUTH, 1.28 kg/ha; type: in vivo, Abutilon theophrasti; settings: dosage 1280 g/ha, visual rating about 3 weeks after treatment vs untreated controls (100% = plants died)
How it was run: (§3)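 Foliar application at the one-leaf stage: compound as WP or EC in water with 0.5% additive, sprayed at 600 L/ha. Plants are kept about 3 weeks in the greenhouse, then % herbicidal action is estimated visually (100% = death).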

ALOMY = assay: Pre-emergence action at 320 g/ha against ALOMY; type: in vivo, Alopecurus myosuroides; settings: scored visually after about 3 weeks vs untreated controls (100% = plants have died)
How it was run: as §2

POAAN [3] = assay: Post-emergence action against POAAN, 1.28 kg/ha; type: in vivo, Poa annua; settings: dosage 1280 g/ha, visual rating about 3 weeks after treatment vs untreated controls
How it was run: as §3

POAAN [4] = assay: Pre-emergence action against POAAN, 1280 g/ha; type: in vivo, Poa annua; settings: visual scoring after about 3 weeks vs untreated controls, 100% = plants have died, 0% = like control plants
How it was run: as §1

SETVI [5] = assay: Post-emergence action at 320 g/ha against SETVI; type: in vivo, Setaria viridis; settings: visual rating about 3 weeks after treatment vs untreated controls
How it was run: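 Activity is a visual rating against untreated controls, with 0% like control and 100% dead plants, made about 3 weeks after treatment. Plants grown in sandy loam in the greenhouse received a post-emergence spray at the one-leaf stage of 320 g/ha, formulated as WP or EC with 0.5% additive in 600 l/ha water.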

AMARE [6] = assay: Pre-emergence action against AMARE, 1280 g/ha; type: in vivo, Amaranthus retroflexus; settings: scored visually after about 3 weeks vs untreated controls (100% = plants have died)
How it was run: as §1

AMARE [7] = assay: Pre-emergence action at 320 g/ha against AMARE; type: in vivo, Amaranthus retroflexus; settings: visual scoring after about 3 weeks vs untreated controls
How it was run: as §2

SMILES: COC(=O)[C@@H](C)Oc1nn(-c2ccccc2)c(-c2cccnc2)c1Br [VII-008]
- Pre-emergence action against SETVI (SETVI [1]): 100%
- Pre-emergence action against STEME (STEME): 100%
- Pre-emergence action against DIGSA in % (DIGSA): 90%
- Pre-emergence action against SETVI in % (SETVI [2]): 100%
- Pre-emergence action against MATIN (MATIN): 100%
- Pre-emergence action against ECHCG (ECHCG): 100%
- Pre-emergence action against POLCO in % (POLCO): 100%
- Post-emergence action against ABUTH (ABUTH): 90%
- Pre-emergence action at 320 g/ha against ALOMY in % (ALOMY): 100%
- Post-emergence action against POAAN (POAAN [3]): 100%
- Pre-emergence action against POAAN (POAAN [4]): 100%
- Post-emergence action against SETVI in % (SETVI [5]): 100%
- Pre-emergence action against AMARE (AMARE [6]): 100%
- Pre-emergence action against AMARE in % (AMARE [7]): 100%

SMILES: CCOC(=O)COc1nn(-c2ccccc2F)c(-c2ccc(F)nc2)c1C(F)(F)F [VII-010]
- Pre-emergence action against SETVI (SETVI [1]): 100%
- Pre-emergence action against STEME (STEME): 100%
- Pre-emergence action against DIGSA in % (DIGSA): 100%
- Pre-emergence action against SETVI in % (SETVI [2]): 100%
- Pre-emergence action against MATIN (MATIN): 90%
- Pre-emergence action against ECHCG (ECHCG): 100%
- Pre-emergence action against POLCO in % (POLCO): 90%
- Post-emergence action against ABUTH (ABUTH): 90%
- Pre-emergence action at 320 g/ha against ALOMY in % (ALOMY): 100%
- Post-emergence action against POAAN (POAAN [3]): 100%
- Pre-emergence action against POAAN (POAAN [4]): 100%
- Post-emergence action against SETVI in % (SETVI [5]): 90%
- Pre-emergence action against AMARE (AMARE [6]): 100%
- Pre-emergence action against AMARE in % (AMARE [7]): 100%

SMILES: CCOC(=O)COc1nn(-c2ccccc2F)c(-c2ccc(F)nc2)c1Br [VII-012, Ethyl {[4-bromo-1-(2-fluorophenyl)-5-(6-fluoropyridin-3-yl)-1H-pyrazol-3-yl]oxy}acetate]
- pest or weed control at 1280 g/ha (SETVI [1]; Setaria viridis, 504 h): 100%
- pest or weed control at 1280 g/ha (STEME; Stellaria media, 504 h): 90%
- pest or weed control at 320 g/ha (DIGSA; Digitaria sanguinalis, 504 h): 100%
- pest or weed control at 320 g/ha (SETVI [2]; Setaria viridis, 504 h): 100%
- pest or weed control at 1280 g/ha (MATIN; Tripleurospermum inodorum, 504 h): 100%
- pest or weed control at 1280 g/ha (ECHCG; Echinochloa crus-galli, 504 h): 100%
- pest or weed control at 320 g/ha (POLCO; Fallopia convolvulus, 504 h): 90%
- Post-emergence action against ABUTH (ABUTH): 100%
- pest or weed control at 320 g/ha (ALOMY; Alopecurus myosuroides, 504 h): 100%
- pest or weed control at 1280 g/ha (POAAN [3]; Poa annua, 504 h): 100%
- pest or weed control at 1280 g/ha (POAAN [4]; Poa annua, 504 h): 100%
- Post-emergence action against SETVI in % (SETVI [5]): 100% and 80%
- pest or weed control at 1280 g/ha (AMARE [6]; Amaranthus retroflexus, 504 h): 100%
- pest or weed control at 320 g/ha (AMARE [7]; Amaranthus retroflexus, 504 h): 100%

SMILES: CCOC(=O)COc1nn(-c2ccccc2F)c(-c2cncc(F)c2)c1Br [VII-015]
- Pre-emergence action against SETVI (SETVI [1]): 100%
- Pre-emergence action against STEME (STEME): 100%
- Pre-emergence action against DIGSA in % (DIGSA): 100%
- Pre-emergence action against SETVI in % (SETVI [2]): 100%
- Pre-emergence action against MATIN (MATIN): 100%
- Pre-emergence action against ECHCG (ECHCG): 100%
- Pre-emergence action against POLCO in % (POLCO): 100%
- Post-emergence action against ABUTH (ABUTH): 90%
- Pre-emergence action at 320 g/ha against ALOMY in % (ALOMY): 100%
- Post-emergence action against POAAN (POAAN [3]): 100%
- Pre-emergence action against POAAN (POAAN [4]): 100%
- Post-emergence action against SETVI in % (SETVI [5]): 100%
- Pre-emergence action against AMARE (AMARE [6]): 100%
- Pre-emergence action against AMARE in % (AMARE [7]): 100%

SMILES: CCOC(=O)COc1nn(-c2ccc(F)cc2F)c(-c2ccc(F)nc2)c1Cl [VII-016]
- Pre-emergence action against SETVI (SETVI [1]): 100%
- Pre-emergence action against STEME (STEME): 100%
- Pre-emergence action against DIGSA in % (DIGSA): 100%
- Pre-emergence action against SETVI in % (SETVI [2]): 100%
- Pre-emergence action against MATIN (MATIN): 90%
- Pre-emergence action against ECHCG (ECHCG): 100%
- Pre-emergence action against POLCO in % (POLCO): 90%
- Post-emergence action against ABUTH (ABUTH): 90%
- Pre-emergence action at 320 g/ha against ALOMY in % (ALOMY): 100%
- Post-emergence action against POAAN (POAAN [3]): 100%
- Pre-emergence action against POAAN (POAAN [4]): 100%
- Post-emergence action against SETVI in % (SETVI [5]): 80%
- Pre-emergence action against AMARE (AMARE [6]): 100%
- Pre-emergence action against AMARE in % (AMARE [7]): 100%
